Test results as given in US12565467B2, “Compounds, compositions, and methods for the treatment of inflammatory, degenerative, and neurodegenerative diseases” (Board of Supervisors of Louisiana State University and …, priority 2015, dated 2026).
“Also recorded” adds a separate entry of the source.

Tests used:
ischemic stroke (MCAo) = assay: Ischemic stroke model, 2 h MCAo, neurological score during 7 days; type: in vivo; conditions: rat; for activity relative to DHA and NPD1, neurological score (FIG. 12): one hour after 2 h MCAo, 7 days; for in vivo neuroprotective effect (FIG. 12): ICV after 2 hours of MCAo
Procedure: FIG. 12. […] To test the novel elovanoids the experimental design consisted injecting the compounds into the right cerebral ventricle (5 μg/per rat, ICV), one hour after two hours of an ischemic stroke in rats and following thereafter the neurological behavior (neurological score) during 7 days. The protocol in brief was as follows. The injection was made through a surgically implanted metal canula (Alzet) into the right lateral ventricle. Two days later the right middle cerebral artery (MCA) was occluded for 2 h by means of an intraluminal nylon filament (Belayev et al, Traslational Stroke Research, 2010). Then one hour after the compounds were injected dissolved in sterile cerebrospinal fluid. The occlusion was transient performed as follows. The right common carotid artery was exposed through an incision in the neck and was isolated from surrounding tissues. The distal external carotid artery and pterygopalatine arteries were tied. A 4-cm of 3-0 monofilament nylon suture coated with poly-Lysine was introduced into the internal carotid artery and MCA. The suture position was confirmed by advancing the suture 20-22 mm from the common carotid artery bifurcation. Then, the rats were allowed to awaken from anesthesia and returned to their cages. The degree of stroke injury was assessed by neurological assessment of each rat at 60 min after onset of MCAo. […] After 2 hours of MCA occlusion, the rats were re-anesthetized temperature probes were reinserted and the intraluminal suture was removed. The neck incision was closed with silk sutures, and the animals were allowed free access to food and water. […] The methyl ester ELV2-Me is expected to first be hydrolyzed via the actions of esterases, and it may have a more delayed effect, which may be beneficial for a sustainable long-term treatment.
To test the novel elovanoids the experimental design consisted injecting the compounds into the right cerebral ventricle (5 μg/per rat, ICV), one hour after two hours of an ischemic stroke in rats and following thereafter the neurological behavior (neurological score) during 7 days. The protocol in brief was as follows. The injection was made through a surgically implanted metal canula (Alzet) into the right lateral ventricle. Two days later the right middle cerebral artery (MCA) was occluded for 2 h by means of an intraluminal nylon filament (Belayev et al, Traslational Stroke Research, 2010). Then one hour after the compounds were injected dissolved in sterile cerebrospinal fluid. The occlusion was transient performed as follows. The right common carotid artery was exposed through an incision in the neck and was isolated from surrounding tissues. The distal external carotid artery and pterygopalatine arteries were tied. A 4-cm of 3-0 monofilament nylon suture coated with poly-Lysine was introduced into the internal carotid artery and MCA. The suture position was confirmed by advancing the suture 20-22 mm from the common carotid artery bifurcation. Then, the rats were allowed to awaken from anesthesia and returned to their cages. The degree of stroke injury was assessed by neurological assessment of each rat at 60 min after onset of MCAo. […] After 2 hours of MCA occlusion, the rats were re-anesthetized temperature probes were reinserted and the intraluminal suture was removed. The neck incision was closed with silk sutures, and the animals were allowed free access to food and water. […]

[1] = system: neuronal cells in primary cultures; assay: NMDA-induced toxicity in neuronal cells in primary culture, MTT assay for cell viability; type: cell-based; conditions: MK-801 with ELV2; NMDA receptor blocker used as control
Text: FIG. 11. […] In several neurological and neurodegenerative diseases, such as stroke, epilepsy, status epilepticus, traumatic head injury, etc., as well as ophthalmological diseases, such as glaucoma, an excessive presynaptic release of the excitatory neurotransmitter glutamate takes place. As a consequence, glutamate transporters that function to remove extracellular glutamate from astrocytes and neurons are overwhelmed and the NMDA-type glutamate receptor is over-activated. This receptor is a calcium channel that therefore leads to a flooding of calcium into the postsynaptic cell. The overall phenomena is refer to as excitotoxicity that in turn leads to neuronal damage and cell death. MK801 is a known blocker of this receptor used here as a control.
In several neurological and neurodegenerative diseases, such as stroke, epilepsy, status epilepticus, traumatic head injury, etc., as well as ophthalmological diseases, such as glaucoma, an excessive presynaptic release of the excitatory neurotransmitter glutamate takes place. As a consequence, glutamate transporters that function to remove extracellular glutamate from astrocytes and neurons are overwhelmed and the NMDA-type glutamate receptor is over-activated. This receptor is a calcium channel that therefore leads to a flooding of calcium into the postsynaptic cell. The overall phenomena is refer to as excitotoxicity that in turn leads to neuronal damage and cell death. MK801 is a known blocker of this receptor used here as a control.

[2] = system: human retinal pigment epithelial (RPE) cells deficient in 15-LOX-D1; assay: Oxidative stress (OS) induced apoptosis / cell death in 15-LOX-1-deficient human RPE cells; type: cell-based
Text: (§1) FIG. 4. (A) Cytoprotective effects of NPD1 like compounds on OS induced apoptosis. The results shown in this figure compare the cytoprotective capacities of long chain polyunsaturated fatty acids (VLC-PUFA), elovanoids ELV1 and ELV2, and neuroprotectin D1 (NPD1) in human retinal pigment epithelial (RPE) cells deficient in 15-LOX-D1 by measuring the protection of cell deaths induced by oxidative stress (OS) by these compounds. […] (B) Elovanoid precursors protect human retinal pigment epithelial cells deficient in 15-LOX-1, unlike DHA, from oxidative stress conditions.
(§2) FIG. 5. (A) Effect of PD146176 on VLC-PUFA-inhibited apoptosis induced by OS in ARPE-19 cells. […] It is evident that 32:6 and 34:6 LCAF were able to induce a substantial amount (55 and 48% respectively) of neuroprotection compared to PD 146176 (22%) when the stressed cells were treated with 5 μm of 15-LOX-D1 inhibitor. It can be concluded that since PD146176 is the inhibitor of 15-lipooxygenase enzyme, it might be protecting the stressed RPE cells by accumulating neuroprotective agents inside the cells. (B) Comparison of cytoprotective capacities of NPD1, C32:6 and C34:6 VLC-PUFA on oxidative stress-induced apoptosis in 15-LOX-1 cells. Shown here is the comparison of neuroprotection in a 15-LOX-1-deficient cell line under oxidative stress with 32:6 and 34:6 VLC-PUFA along with NPD1. 32:6 and 34:6 LCAF were able to induce neuroprotection (45% and 40% respectively), as compared to oxidative stress (90%) under this condition. (C) Concentration dependent cytoprotection by C32:6 and C34:6 VLC-PUFA in oxidative-stress induced ARPE-19 cells. A concentration (50-500 nM) kinetic of cytoprotection induced by LCAF 32:6 and 34:6 in RPE cell culture under OS was shown here. […] We decided to use 250 nM concentrations of 32:6 and 34:6 LCAF in subsequent experiments. (D) Selected images of alive and dead cells from this study (control, OS, treatment with C32:6).
as §1, with “Evidence of cytoprotection by 32.6 and 34.6 VLC-PUFA in oxidative-stress induced ARPE-19 cells as detailed in (FIG. 4): (A) Cytoprotective” for “FIG. 4. (A) Cytoprotective”, “capacities of very long chain” for “capacities of long chain”
FIG. 5—(A) Effect of PD146176 on VLC-PUFA inhibited apoptosis induced by OS in ARPE-19 cells. […] It is evident that 32:6 and 34:6 LCAF were able to induce a substantial amount (55 and 48% respectively) of neuroprotection compared to PD 146176 (22%) when the stressed cells were treated with 5 μm of 15-LOX-D1 inhibitor. It can be concluded that since PD146176 is the inhibitor of 15-lipooxygenase enzyme, it might be protecting the stressed RPE cells by accumulating neuroprotective agents inside the cells. (B) Comparison of cytoprotective capacities of NPD1, C32:6 and C34:6 VLC-PUFA on oxidative stress-induced apoptosis in 15-LOX-1 cells. Shown here is the comparison of neuroprotection in a 15-LOX-1-deficient cell line under oxidative stress with 32:6 and 34:6 VLC-PUFA along with NPD1. 32:6 and 34:6 VLC-PUFA were able to induce neuroprotection (45% and 40% respectively), as compared to oxidative stress (90%) under this condition. (C) Concentration dependent cytoprotection by C32:6 and C34:6 VLC-PUFA in oxidative-stress induced ARPE-19 cells. A concentration (50-500 nM) kinetic of cytoprotection induced by VLC-PUFA 32:6 and 34:6 in RPE cell culture under OS was shown here. […] We decided to use 250 nM concentrations of 32:6 and 34:6 VLC-PUFA in subsequent experiments. […]

ARPE-19 cells = assay: Oxidative stress induced apoptosis / cell death in ARPE-19 cells; type: cell-based, human; conditions: stressed ARPE-19 cells treated with 5 μm of 15-LOX-D1 inhibitor PD146176
Procedure: as §2
FIG. 5—(A) Effect of PD146176 on VLC-PUFA inhibited apoptosis induced by OS in ARPE-19 cells. […] It is evident that 32:6 and 34:6 LCAF were able to induce a substantial amount (55 and 48% respectively) of neuroprotection compared to PD 146176 (22%) when the stressed cells were treated with 5 μm of 15-LOX-D1 inhibitor. It can be concluded that since PD146176 is the inhibitor of 15-lipooxygenase enzyme, it might be protecting the stressed RPE cells by accumulating neuroprotective agents inside the cells. (B) Comparison of cytoprotective capacities of NPD1, C32:6 and C34:6 VLC-PUFA on oxidative stress-induced apoptosis in 15-LOX-1 cells. Shown here is the comparison of neuroprotection in a 15-LOX-1-deficient cell line under oxidative stress with 32:6 and 34:6 VLC-PUFA along with NPD1. 32:6 and 34:6 VLC-PUFA were able to induce neuroprotection (45% and 40% respectively), as compared to oxidative stress (90%) under this condition. (C) Concentration dependent cytoprotection by C32:6 and C34:6 VLC-PUFA in oxidative-stress induced ARPE-19 cells. A concentration (50-500 nM) kinetic of cytoprotection induced by VLC-PUFA 32:6 and 34:6 in RPE cell culture under OS was shown here. […] We decided to use 250 nM concentrations of 32:6 and 34:6 VLC-PUFA in subsequent experiments. (D) Selected images of alive and dead cells from this study (control, OS, treatment with C32:6).

For CC/C=C\C[C@H](O)\C=C/C=C/C=C/[C@H](O)C/C=C\C/C=C\CCCCCCCCCCCCCCC(=O)OC [ELV2-Me, methyl (16Z,19Z,22R,23E,25E,27Z,29S,31Z)-22,29-dihydroxy-tetratriaconta-16,19,23,25,27,31-hexaenoate], the “activity relative to DHA and NPD1, neurological score (FIG. 12)” value (ischemic stroke (MCAo); 5 μg/per rat ICV) was “more active than DHA and NPD1; also recorded: greater in vivo potency than DHA or NPD1” and the “in vivo neuroprotective effect (FIG. 12)” value (ischemic stroke (MCAo)) was “potent in vivo neuroprotective effects”.

With CC/C=C\C[C@H](O)\C=C/C=C/C=C/[C@H](O)C/C=C\C/C=C\CCCCCCCCCCCCCCC(=O)O [ELV2-Na, sodium (16Z,19Z,22R,23E,25E,27Z,29S,31Z)-22,29-dihydroxytetratriaconta-16,19,23,25,27,31-hexaenoate] the “potency of sodium salt versus methyl ester in stroke model (FIG. 12)” value (ischemic stroke (MCAo); 5 μg/per rat ICV) was “greater potency”, the “activity relative to DHA and NPD1, neurological score (FIG. 12)” value (ischemic stroke (MCAo); 5 μg/per rat ICV) was “more active than DHA and NPD1; also recorded: greater in vivo potency than DHA or NPD1” and the “in vivo neuroprotective effect (FIG. 12)” value (ischemic stroke (MCAo)) was “potent in vivo neuroprotective effects”.

With C[C@]12N[C@H](Cc3ccccc31)c1ccccc12 [MK-801, reference compound] the “effect of MK-801 on protection, MTT assay for cell viability (FIG. 11B)” value [1] was “potentiates protection”.

For CC/C=C\C[C@H](O)\C=C/C=C/C=C/[C@H](O)C/C=C\C/C=C\CCC(=O)O [NPD1, 10R,17S-dihydroxy-docosa-4Z,7Z,11E,13E,15Z,19Z-hexaenoic acid, reference compound], the “protection of cell deaths induced by oxidative stress (FIG. 4A)” value ([2]; 15-LOX-1-deficient human RPE cells, compared to OS (90%)) was 60% and the “protection against cell death under oxidative stress conditions (FIG. 4B)” value ([2]; 15-LOX-D1 cells under oxidative stress) was “protect against cell death”.

c1ccc2c(c1)SCc1c-2[nH]c2ccccc12 [PD 146176, reference compound] was tested, and the “neuroprotection (FIG. 5A)” value (ARPE-19 cells) was 22%.
